# Biological target: KRAS G12C (GMPPNP-loaded) and cRAF (Ras-binding domain) interaction (Homo sapiens (Human), UniProt P01116, C118S/C51S/C80L/G12C)
# Experiment: Inhibition of KRAS G12C and cRAF binding (AlphaScreen)
# Conditions: KRAS G12C loaded with GMPPNP, cRaf RBD, 2 hours preincubation; read-out: Raf-1 RBD K-Ras IC50
# Protocol: Compounds were diluted in 100% DMSO and each compound concentration was spotted at 200 nl/well onto low volume, white 384 well plates. […] KRAS G12C was preloaded with the GTP analogue Guanosine 5′-[β,γ-imido]triphosphate (GMPPNP). The KRAS G12C was diluted in 25 mM Hepes, pH 7.4, 150 mM NaCl, 5 mM MgCl2, 0.01% TritonX-100 and 10 μM GMPPNP and added at 10 ul/well to compound-spotted plates resulting in a DMSO concentration of 2%. Plates were incubated for 2 hours. A mixture of RBD and the AlphaScreen streptavidin donor and glutathione acceptor beads diluted in 25 mM Hepes, pH 7.4, 150 mM NaCl, 5 mM MgCl2, 0.01% TritonX-100 and 2% DMSO was then added at 10 ul/well and incubated for 60-90 minutes before the samples were read for emission at 570 nm after excitation of the donor beads at 680 nm. All incubations were performed at room temperature. The final top compound concentration was 50 μM with 1:3 titrations for 10-point dose response curves. […] IC50S were determined using nonlinear regression fit of [inhibitor] vs. response (4 parameters). […]
# KRAS G12C (GMPPNP-loaded) and cRAF (Ras-binding domain) interaction, sequence (P01116 other isoform, or with tags, fused parts or gaps G12C/C51S/C80L/C118S): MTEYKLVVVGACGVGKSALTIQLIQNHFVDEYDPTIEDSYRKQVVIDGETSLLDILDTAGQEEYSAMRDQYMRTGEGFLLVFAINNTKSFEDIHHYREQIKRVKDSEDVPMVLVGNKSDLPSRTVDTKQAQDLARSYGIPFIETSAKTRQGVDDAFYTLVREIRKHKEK
row,IC50 [µM],SMILES
1,0.1 to 0.5,N#CC[C@H]1CN(c2nc(OCC34CCCN3CCC4)nc3c2CCN(c2cccc4cccc(Cl)c24)C3)CCN1C(=O)/C=C/CN1CCCS1(=O)=O [Compound 178]
2,0.01 to 0.1,C[C@@H](F)c1noc(/C=C/C(=O)N2CCN(c3nc(OC[C@@]45CCCN4C[C@H](F)C5)nc4c(F)c(-c5cccc6cccc(Cl)c56)ncc34)C[C@@H]2CC#N)n1 [Compound 130]
3,0.1 to 0.5,Cc1nccc(/C=C/C(=O)N2CCN(c3nc(OC[C@@]45CCCN4C[C@H](F)C5)nc4c(F)c(-c5c(C)cc(F)c6[nH]ncc56)ncc34)C[C@@H]2CC#N)n1 [Compound 212]
4,> 0.5,Cn1cnc(/C=C/C(=O)N2CCN(c3nc(OC[C@@]45CCCN4C[C@H](F)C5)nc4c(F)c(-c5cccc6cccc(Cl)c56)ncc34)C[C@@H]2CC#N)c1 [Compound 42]
5,< 0.01,N#CC[C@H]1CN(c2nc(OCC34CCCN3CCC4)nc3c2CCN(c2cccc4cccc(Cl)c24)C3)CCN1C(=O)/C=C/CN1CC2(COC2)C1 [Compound 194]
6,< 0.01,CO[C@@H]1CCN(C/C=C/C(=O)N2CCN(c3nc(OCC45CCCN4CCC5)nc4c3CCN(c3cccc5cccc(Cl)c35)C4)C[C@@H]2CC#N)C1 [Compound 173]
7,> 0.5,Cc1nccc(/C=C/C(=O)N2CCN(c3nc(OC[C@@]45CCCN4C[C@H](F)C5)nc4c(F)c(-c5ccccc5C(F)F)ncc34)C[C@@H]2CC#N)n1 [Compound 290]
8,> 0.5,Cn1cnc(/C=C/C(=O)N2CCN(c3nc(OC[C@@]45CCCN4C[C@H](F)C5)nc4c(F)c(-c5cccc6cccc(Cl)c56)ncc34)C[C@@H]2CC#N)n1 [Compound 40]
9,< 0.01,CO[C@H]1CCN(C/C=C/C(=O)N2CCN(c3nc(OCC45CCCN4CCC5)nc4c3CCN(c3cccc5cccc(Cl)c35)C4)C[C@@H]2CC#N)C1 [Compound 200]
10,0.1 to 0.5,N#CC[C@H]1CN(c2nc(OC[C@@]34CCCN3C[C@H](F)C4)nc3c(F)c(-c4cccc5ccc(F)c(F)c45)ncc23)CCN1C(=O)/C=C/CN1CCn2ccnc2C1 [Compound 264]
11,0.01 to 0.1,CN1CCN(C/C=C/C(=O)N2CCN(c3nc(OC[C@@]45CCCN4C[C@H](F)C5)nc4c(F)c(-c5cccc(Cl)c5C5CC5)ncc34)C[C@@H]2CC#N)CC1 [Compound 286]
12,0.01 to 0.1,N#CC[C@H]1CN(c2nc(OC[C@@]34CCCN3C[C@H](F)C4)nc3c(F)c(-c4cccc5cccc(Cl)c45)ncc23)CCN1C(=O)/C=C/CN1CCn2ccnc2C1 [Compound 262]
13,0.1 to 0.5,N#CC[C@H]1CN(c2nc(OC[C@@]34CCCN3C[C@H](F)C4)nc3c(F)c(-c4cccc5ccc(F)c(Cl)c45)ncc23)CCN1C(=O)/C=C/CN1CCS(=O)(=O)CC1 [Compound 213]
14,< 0.01,COC1CN(C/C=C/C(=O)N2CCN(c3nc(OCC45CCCN4CCC5)nc4c3CCN(c3cccc5cccc(Cl)c35)C4)C[C@@H]2CC#N)C1 [Compound 205]
15,> 0.5,Cc1nccc(/C=C/C(=O)N2CCN(c3nc(OC[C@@]45CCCN4C[C@H](F)C5)nc4c(F)c(-c5cccc6c(C)c(F)ccc56)ncc34)C[C@@H]2CC#N)n1 [Compound 260]
16,0.1 to 0.5,N#CC[C@H]1CN(c2nc(OC[C@@]34CCCN3C[C@H](F)C4)nc3c(F)c(-c4cccc5cccc(Cl)c45)ncc23)CCN1C(=O)/C=C/CN1CCn2ncnc2C1 [Compound 265]
17,< 0.01,N#CC[C@H]1CN(c2nc(OCC34CCCN3CCC4)nc3c2CCN(c2cccc4cccc(Cl)c24)C3)CCN1C(=O)/C=C/CN1CC[C@@H](F)C1 [Compound 175]
18,< 0.01,N#CC[C@H]1CN(c2nc(OC[C@@]34CCCN3C[C@H](F)C4)nc3c(F)c(-c4cccc(Cl)c4C4CC4)ncc23)CCN1C(=O)/C=C/CN1CC2CCC1CO2 (stereo partly drawn) [Compound 279]

row,IC50 [µM],SMILES
1,0.01 to 0.1,C[C@@H]1CN(C/C=C/C(=O)N2CCN(c3nc(OC[C@@]45CCCN4C[C@H](F)C5)nc4c(F)c(-c5cccc(Cl)c5C5CC5)ncc34)C[C@@H]2CC#N)C[C@@H](C)O1 [Compound 301]
2,< 0.01,N#CC[C@H]1CN(c2nc(OC[C@@]34CCCN3C[C@H](F)C4)nc3c(F)c(-c4cccc(Cl)c4C4CC4)ncc23)CCN1C(=O)/C=C/CN1CC[C@@H](F)C1 [Compound 284]
3,0.01 to 0.1,CN1CCN(C/C=C/C(=O)N2CCN(c3nc(OC[C@@]45CCCN4C[C@H](F)C5)nc4c(F)c(-c5cccc6cccc(Cl)c56)ncc34)C[C@@H]2CC#N)CC1 [Compound 280]
4,< 0.01,CO[C@@H]1CCN(C/C=C/C(=O)N2CCN(c3nc(OC[C@@]45CCCN4C[C@H](F)C5)nc4c(F)c(-c5cccc6cccc(F)c56)ncc34)C[C@@H]2CC#N)C1 [Compound 221]
5,< 0.01,"CCc1c(F)ccc2cccc(-c3ncc4c(N5CCN(C(=O)/C=C/c6cc(C)nc(C)n6)[C@@H](CC#N)C5)nc(OC[C@@]56CCCN5C[C@H](F)C6)nc4c3F)c12 [Compound 98, 2-((S)-1-((E)-3-(2,6-dimethylpyrimidin-4-yl)acryloyl)-4-(7-(8-ethyl-7-fluoronaphthalen-1-yl)-8-fluoro-2-(((2R,7aS)-2-fluorotetrahydro-1H-pyrrolizin-7a(5H)-yl)methoxy)pyrido[4,3-d]pyrimidin-4-yl)piperazin-2-yl)acetonitrile]"
6,> 0.5,N#CC[C@H]1CN(c2nc(OCC34CCCN3CCC4)nc3c2CCN(c2cccc4cccc(Cl)c24)C3)CCN1C(=O)/C=C/c1cnccn1 [Compound 39]
7,0.1 to 0.5,N#CC[C@H]1CN(c2nc(OC[C@@]34CCCN3C[C@H](F)C4)nc3c(F)c(-c4cccc5cccc(Cl)c45)ncc23)CCN1C(=O)/C=C/CN1CCn2cnnc2C1 [Compound 270]
8,< 0.01,CO[C@@H]1CCN(C/C=C/C(=O)N2CCN(c3nc(OC[C@@]45CCCN4C[C@H](F)C5)nc4c(F)c(-c5cccc(Cl)c5C5CC5)ncc34)C[C@@H]2CC#N)C1 [Compound 288]
9,0.01 to 0.1,C[C@@H]1CN(C/C=C/C(=O)N2CCN(c3nc(OC[C@@]45CCCN4C[C@H](F)C5)nc4c(F)c(-c5cccc6cccc(F)c56)ncc34)C[C@@H]2CC#N)C[C@H](C)O1 [Compound 234]
10,0.01 to 0.1,CC(C)c1noc(/C=C/C(=O)N2CCN(c3nc(OC[C@@]45CCCN4C[C@H](F)C5)nc4c3CCN(c3cccc5cccc(Cl)c35)C4)C[C@@H]2CC#N)n1 [Compound 125]
11,0.01 to 0.1,CC1(c2noc(/C=C/C(=O)N3CCN(c4nc(OCC56CCCN5CCC6)nc5c4CCN(c4cccc6cccc(Cl)c46)C5)C[C@@H]3CC#N)n2)CC1 [Compound 45]
12,0.1 to 0.5,Cc1nccc(/C=C/C(=O)N2CCN(c3nc(OC[C@@]45CCCN4C[C@H](F)C5)nc4c(F)c(-c5cccc6ccccc56)ncc34)C[C@@H]2CC#N)n1 [Compound 210]
13,0.01 to 0.1,CC1(c2noc(/C=C/C(=O)N3CCN(c4nc(OC[C@@]56CCCN5C[C@H](F)C6)nc5c4CCN(c4cccc6cccc(Cl)c46)C5)C[C@@H]3CC#N)n2)CC1 [Compound 46]
14,0.1 to 0.5,Cn1cnc(/C=C/C(=O)N2CCN(c3nc(OC[C@@]45CCCN4C[C@H](F)C5)nc4c3CCN(c3cccc5cccc(Cl)c35)C4)C[C@@H]2CC#N)c1 [Compound 44]
15,0.1 to 0.5,CC(C)c1noc(/C=C/C(=O)N2CCN(c3nc(OCC45CCCN4CCC5)nc4c(F)c(-c5cccc6ccc(F)c(Cl)c56)ncc34)C[C@@H]2CC#N)n1 [Compound 129]
16,< 0.01,N#CC[C@H]1CN(c2nc(OCC34CCCN3CCC4)nc3c2CCN(c2cccc4cccc(Cl)c24)C3)CCN1C(=O)/C=C/CN1CC[C@H](F)C1 [Compound 174]
17,< 0.01,N#CC[C@H]1CN(c2nc(OC[C@@]34CCCN3C[C@H](F)C4)nc3c(F)c(-c4cccc5ccc(F)c(Cl)c45)ncc23)CCN1C(=O)/C=C/CN1CCSCC1 [Compound 231]
18,> 0.5,Cn1nnc(/C=C/C(=O)N2CCN(c3nc(OCC45CCCN4CCC5)nc4c3CCN(c3cccc5cccc(Cl)c35)C4)C[C@@H]2CC#N)n1 [Compound 119]

row,SMILES,IC50 [µM]
1,Cc1c(F)ccc2c(-c3ncc4c(N5CCN(C(=O)/C=C/CN6[C@@H]7CC[C@H]6COC7)[C@@H](CC#N)C5)nc(OC[C@@]56CCCN5C[C@H](F)C6)nc4c3F)cccc12 [Compound 251],0.1 to 0.5
2,N#CC[C@H]1CN(c2nc(OC[C@@]34CCCN3C[C@H](F)C4)nc3c(F)c(-c4ccccc4C4CC4)ncc23)CCN1C(=O)/C=C/CN1[C@@H]2CC[C@H]1COC2 [Compound 271],0.01 to 0.1
3,CCc1c(Cl)cccc1-c1ncc2c(N3CCN(C(=O)/C=C/CN4[C@@H]5CC[C@H]4COC5)[C@@H](CC#N)C3)nc(OC[C@@]34CCCN3C[C@H](F)C4)nc2c1F [Compound 281],0.01 to 0.1
4,N#CC[C@H]1CN(c2nc(OCC34CCCN3CCC4)nc3c2CCN(c2cccc4cccc(Cl)c24)C3)CCN1C(=O)/C=C/CN1CC2CC(C1)O2 [Compound 166],< 0.01
5,"Cc1c(F)ccc2cccc(-c3ncc4c(N5CCN(C(=O)/C=C/CN6[C@@H]7CC[C@H]6COC7)[C@@H](CC#N)C5)nc(OC[C@@]56CCCN5C[C@H](F)C6)nc4c3F)c12 [Compound 106, 2-((S)-1-((E)-4-((1R,5S)-3-oxa-8-azabicyclo[3.2.1]octan-8-yl)but-2-enoyl)-4-(8-fluoro-7-(7-fluoro-8-methylnaphthalen-1-yl)-2-(((2R,7aS)-2-fluorotetrahydro-1H-pyrrolizin-7a(5H)-yl)methoxy)pyrido[4,3-d]pyrimidin-4-yl)piperazin-2-yl)acetonitrile]",< 0.01
6,N#CC[C@H]1CN(c2nc(OC[C@@]34CCCN3C[C@H](F)C4)nc3c(F)c(-c4cccc5cccc(F)c45)ncc23)CCN1C(=O)/C=C/CN1C2COCC1C2 [Compound 248],0.01 to 0.1

# — patent US20250129103A1, “METHODS FOR TREATMENT OF CANCER” (Frontier Medicines Corporation, priority 2022, published 2025)
